In patent US10206944B2, “Chondroitin for use in medicine” (ALTERGON S.A., priority 2012, dated 2019):

What was measured:
[1] = test system: HT-1376 cells; test: Flow cytometry of apoptotic and necrotic cells (Annexin V-FITC/PI); format: cell-based, human; design: unit not given here; conditions: 48 h, alone or combined
Procedure: Flow cytometry was used to evaluate the quantity of apoptotic or necrotic cells. Fluorescein isothiocyanate (Annexin V-FITC) combined with propidium iodide (PI) was used as marker; the apoptotic cells were Annexin V-FITC positive and PI negative, and the necrotic cells were Annexin V-FITC positive and PI positive. The cells were labelled by incubating them with Annexin V-FITC (Diagnostics MedSystems) and PI (Sigma) in a binding buffer (10 mM HEPES, pH 7.4, 150 mM NaCl, 5 mM KCl, 1 mM MgCl2, 2.5 mM CaCl2) for 10 min at ambient temperature, and then washing and resuspending the cell material in the same buffer. The apoptotic and necrotic cells were analysed by flow cytometry (FACScan, Becton-Dickinson), acquiring an average of 2×10^4 events per sample, with determinations in triplicate on three separate experiments.

[2] = test system: human bladder carcinoma cell line HT-1376; test: Inhibition of growth of bladder cancer cells and polysaccharide-antitumoral synergism; format: cell-based; conditions: HT-1376, after 72 h, product taken individually
Procedure: Human bladder cancer cell lines HT-1376 were used as system model, evaluating the ability of different combinations of GEM or MCC and C or CS to inhibit growth.
Human bladder carcinoma cell line HT-1376 (American Type Tissue Cultures Collection, Rockville, Md.) was cultured in DMEM supplemented with heat inactivated 10% foetal bovine serum (FBS), 20 mM 4,2-hydroxyethyl-1-piperazinyl-ethanesulphonic acid (HEPES), 100 U/mL penicillin, 100 µg/mL streptomycin, 1% w/v sodium L-glutamine and 1% w/v pyruvate. The cells were cultured in a humidified atmosphere comprising 95% air/5% CO2 at 37° C. For the study of synergism between C or CS and MMC or GEM in inhibiting the growth of HT-1376, the cells were seeded in 96-well plates at a density of 6*10^3 cells/well. After 24 hours' incubation at 37° C. the cells were treated with different concentrations of C or CS or GEM or MMC, and polysaccharide-antitumoral combinations thereof. The evaluation of polysaccharide-antitumoral synergism was based on analysis after 72 hours' treatment of the fraction curves of the surviving cells versus the concentration of antitumoral, conducted with the Calcusyn computer program (Biosoft, Ferguson, Mo.). The combination index values (CI) of <1, 1 and >1 indicate synergy, additivity and antagonism respectively in the polysaccharide-antitumoral interaction.

[3] = test system: GRP78; test: Western blotting protein expression of GRP78 in IL-1β-treated human chondrocytes; format: cell-based; conditions: densitometric analysis of Western blotting versus tubulin; control = 1
Procedure: (§1) In a standard experiment, 10^4 cells were seeded per well of a 24-well multiwell plate, and after 5 days, when confluency was reached, the cells were starved for 24 hours (incubation in DMEM with 0.5% FBS). The cells were then treated for 2 h with 1% w/v of chondroitin (C) or chondroitin sulphate (CS) (endotoxin content ≤0.1 EU/mg), in DMEM without FBS; the control was maintained under the same conditions, but without the addition of C or CS. IL-1 β at the concentration of 10 ng/mL was then added to the cultures. After 24 h hours' incubation the cells were recovered and the RNA was extracted from them with Trizol Reagent, as described in the kit manual (Life Technologies Ltd, Milan Italy). The gene expression values are confirmed by the protein expression data obtained in Western blotting by densitometric analysis of the GRP78 protein bands and SOD2 compared with the constitutive tubulin gene (Table 6)

[4] = test system: SOD-2; test: Western blotting protein expression of SOD-2 in IL-1β-treated human chondrocytes; format: cell-based; conditions: densitometric analysis of Western blotting versus tubulin; control = 1
Procedure: as §1

[5] = test system: SOD-2; test: Real-Time PCR gene expression of SOD-2 in IL-1β-treated human chondrocytes; format: cell-based; conditions: 2 h pre-treatment 1% w/v, IL-1β 10 ng/mL 24 h; untreated cells taken as 1
From the text: The objective of the study was to evaluate the effects of chondroitin or chondroitin sulphate on gene expression of GRP78 and SOD-2 in human chondrocytes, after treatment with the pro-inflammatory cytokine IL-1β.
Human chondrocytes extracted from nasal cartilage treated with IL-1β, a pro-inflammatory cytokine which acts as mediator in the activation of the biological mechanisms underlying the onset of OA, were used in the study. In particular, the modulation of two markers involved in the manifestation of the inflammatory state, chaperonin GRP78 and the enzyme superoxide dismutase (SOD-2), was evaluated.
as §1, with “The gene expression values are confirmed by the protein expression data obtained in Western blotting by densitometric analysis of the GRP78 protein bands and SOD2 compared with the constitutive tubulin gene (Table 6)” left out

[6] = test system: volunteers suffering from severe impairment of the knee joint; test: Viscosupplementation and cartilage repair in volunteers with knee joint impairment; format: in vivo, human
Procedure: The aim of the study was to evaluate the therapeutic potential of the hyaluronic acid-chondroitin combination (HA-C) in joint disease associated with damage to the cartilaginous component of the joint. The study was conducted on 30 volunteers suffering from severe impairment of the knee joint, with damage to the cartilaginous component, evident ongoing inflammatory symptoms, swelling and pain. The volunteers, aged between 25 and 45 years, of both sexes, were randomised into three groups of 10; the control group was treated with saline, the HA group with hyaluronic acid and the HA-C group with a mixture of hyaluronic acid and chondroitin. The viscosupplementation treatment was performed 3 times at 2-month intervals by injecting into the joint 2 mL of a sterile, pyrogen-free solution consisting of a saline solution (0.9% NaCl) for the control group, a 20 mg/mL solution of hyaluronic acid 1,200 KDa for the HA group and a 20 mg/mL solution of hyaluronic acid 1,200 KDa+20 mg/mL of chondroitin for the HA-C group. Before and at the end of the 6-month study the volunteers underwent an X-ray and MRI scan of the joint. Three orthopaedic surgeons independently evaluated the development of the pathological symptoms (pain, inflammatory state and swelling), and repair of cartilage damage, over time (before treatment, and after 3 and 6 months), on a scale of 1 to 5 (where 1 represents absence of healing, and 5 indicates total remission of the pathological symptoms and complete repair of the damage to the cartilage tissue).

[7] = test system: volunteers suffering from dry eye; test: Ophthalmic eyedrops in volunteers suffering from dry eye; format: in vivo, human
Procedure: Two ophthalmic preparations were compared: a conventional one based on hyaluronic acid and one based on chondroitin, both at the concentration of 3% w/v in NaCl saline solution at pH 7.4. The eyedrops were prepared in single-dose packaging sterilised in the autoclave. […] The volunteers, of both sexes, aged between 45 and 60 years, were randomised into two groups of 15, and treated with the two types of eyedrops. Under medical control the inflammatory state of the corneal surface was evaluated at the beginning and end of the treatment, and the evaluations of the treated patients relating to tolerability, duration of the wetting effect, and visual alteration after application, were recorded. A scale of 1 to 5 was used for the clinical evaluations and the patients' evaluations, where 5 represents optimum resolution of the pathological condition and its sequelae. […]

[8] = 0.04 μg/mL of C or CS and 0.15 μg/mL of GEM
[9] = 5.7 μg/mL of C or CS and 1.7 μg/mL of MMC

Which “Cell state: apoptotic advanced” value [1, 8] does the source give for Nc1ccn([C@@H]2O[C@H](CO)[C@@H](O)C2(F)F)c(=O)n1 [GEM, gemcitabine] here?
Its value is 2 ± 1.

And the “Cell state: apoptotic early” value [1, 8]?
The value was 1 ± 1.

And the “Cell state: necrotic” value [1, 8]?
The value was 16 ± 3.

And the “Cell state: viable” value [1, 8]?
The value was 81 ± 3.

And the IC50 ([2]; Homo sapiens, read-out: IC50 (50% inhibition of growth))?
The IC50 was 0.5 µg/mL.

Which “Cell state: apoptotic advanced” value [1, 9] does the source give for CO[C@@]12[C@H](COC(N)=O)C3=C(C(=O)C(C)=C(N)C3=O)N1C[C@@H]1N[C@@H]12 [MMC, mitomycin-C] here?
Its value is 2 ± 1.

What about the “Cell state: apoptotic early” value [1, 9] of the same compound?
The value was 1 ± 1.

What about the “Cell state: necrotic” value [1, 9] of the same compound?
Its value is 33 ± 1.

And the “Cell state: viable” value [1, 9]?
The value was 64 ± 5.

And the “IC50 (50% inhibition of growth)” value [2]?
The value was 18 μ/mL.

Which “Protein expression value of GRP78” value [3] does the source give for “IL-1β: pro-inflammatory cytokine, 10 ng/mL, positive control” here?
The value was 1.15 ± 0.15.

What about the “Protein expression value of SOD-2” value [4] of the same compound?
The value was 1.96 ± 0.20.

What about the “gene expression of SOD-2” value [5] of the same compound?
The value was 22 ± 4.

Which results are given for “hyaluronic acid [HA, reference compound]”?
Cartilage repair ([6]; 0 months, scale of 1 to 5): 1.0 ± 0.1; Inflammation ([6]; 0 months, scale of 1 to 5): 1.3 ± 0.2; Swelling ([6]; 0 months, scale of 1 to 5): 1.2 ± 0.1; Pain ([6]; 0 months, scale of 1 to 5, 5 total remission): 1.6 ± 0.2; Cartilage repair ([6]; 3 months, scale of 1 to 5): 1.5 ± 0.2; Inflammation ([6]; 3 months, scale of 1 to 5): 3.1 ± 0.2; Pain ([6]; 3 months, scale of 1 to 5): 3.1 ± 0.4; Swelling ([6]; 3 months, scale of 1 to 5): 3.1 ± 0.3; Inflammation ([6]; 6 months, scale of 1 to 5): 4.1 ± 0.5; Pain ([6]; 6 months, scale of 1 to 5): 4.0 ± 0.3; Doctor: corneal inflammation ([7]; 0 days, 3% w/v eyedrops, scale of 1 to 5, 5 optimum): 1.0 ± 0.1; Patient: absence of visual alteration ([7]; 10 days, scale of 1 to 5): 3.5 ± 0.2; Patient: tolerability ([7]; 10 days, scale of 1 to 5): 3.8 ± 0.2; Patient: wetting effect ([7]; 10 days, scale of 1 to 5): 4.0 ± 0.2; Patient: absence of visual alteration ([7]; 20 days, scale of 1 to 5): 3.2 ± 0.1; Patient: tolerability ([7]; 20 days, scale of 1 to 5): 3.7 ± 0.3; Patient: wetting effect ([7]; 20 days, scale of 1 to 5): 4.1 ± 0.3; Doctor: corneal inflammation ([7]; 30 days, 3% w/v eyedrops 4 times a day, scale of 1 to 5): 3.5 ± 0.2; Patient: absence of visual alteration ([7]; 30 days, scale of 1 to 5): 3.6 ± 0.2; Patient: tolerability ([7]; 30 days, scale of 1 to 5): 3.9 ± 0.3; Patient: wetting effect ([7]; 30 days, scale of 1 to 5): 4.4 ± 0.3
